# In ChEMBL document CHEMBL2440076, “New triarylpyrazoles as broad-spectrum anticancer agents: design, synthesis, and biological evaluation” (Eur J Med Chem, 2013):
# How the values were obtained:
# MDA-MB-468 = assay: Growth inhibition of human MDA-MB-468 cells assessed as cell growth at 10 uM after 48 hrs by sulforhodamine B assay; assay type: functional; details: MDA-MB-468, 48 h, read-out: Activity
# BT-549 = assay: Growth inhibition of human BT549 cells assessed as cell growth at 10 uM after 48 hrs by sulforhodamine B assay; assay type: functional; details: BT-549, 48 h, read-out: Activity
# [1] = Growth inhibition of human Hs 578T cells assessed as cell growth at 10 uM after 48 hrs by sulforhodamine B assay; assay type: functional; details: read-out: Activity
# MDA-MB-231 = assay: Growth inhibition of human MDA-MB-231 cells assessed as cell growth at 10 uM after 48 hrs by sulforhodamine B assay; assay type: functional; details: MDA-MB-231, 48 h, read-out: Activity
# DU-145 = assay: Growth inhibition of human DU145 cells assessed as cell growth at 10 uM after 48 hrs by sulforhodamine B assay; assay type: functional; details: DU-145, 48 h, read-out: Activity
# TK-10 = assay: Growth inhibition of human TK10 cells assessed as cell growth at 10 uM after 48 hrs by sulforhodamine B assay; assay type: functional; details: TK-10, 48 h, read-out: Activity
# NCI-H522 = assay: Growth inhibition of human NCI-H522 cells after 48 hrs by sulforhodamine B assay; assay type: functional; details: NCI-H522, 48 h
# HOP-62 = assay: Growth inhibition of human HOP62 cells after 48 hrs by sulforhodamine B assay; assay type: functional; details: HOP-62, 48 h
# SR = assay: Growth inhibition of human SR cells after 48 hrs by sulforhodamine B assay; assay type: functional
# MOLT-4 [2] = assay: Growth inhibition of human MOLT4 cells after 48 hrs by sulforhodamine B assay; assay type: functional; details: MOLT-4, 48 h
# HL-60(TB) = assay: Growth inhibition of human HL-60(TB) cells after 48 hrs by sulforhodamine B assay; assay type: functional; details: HL-60, 48 h
# UACC-257 = assay: Growth inhibition of human UACC257 cells assessed as cell growth at 10 uM after 48 hrs by sulforhodamine B assay; assay type: functional; details: UACC-257, 48 h, read-out: Activity
# MDA-MB-435 = assay: Growth inhibition of human MDA-MB-435 cells assessed as cell growth at 10 uM after 48 hrs by sulforhodamine B assay; assay type: functional; details: MDA-MB-435, 48 h, read-out: Activity
# HT-29 = assay: Growth inhibition of human HT-29 cells assessed as cell growth at 10 uM after 48 hrs by sulforhodamine B assay; assay type: functional; details: HT-29, 48 h, read-out: Activity
# KM12 = assay: Growth inhibition of human KM12 cells assessed as cell growth at 10 uM after 48 hrs by sulforhodamine B assay; assay type: functional; details: KM12, 48 h, read-out: Activity
# HCT-116 = assay: Growth inhibition of human HCT116 cells assessed as cell growth at 10 uM after 48 hrs by sulforhodamine B assay; assay type: functional; details: HCT-116, 48 h, read-out: Activity
# COLO 205 = assay: Growth inhibition of human COLO205 cells assessed as cell growth at 10 uM after 48 hrs by sulforhodamine B assay; assay type: functional; details: COLO 205, 48 h, read-out: Activity
# NCI-H23 = assay: Growth inhibition of human NCI-H23 cells assessed as cell growth at 10 uM after 48 hrs by sulforhodamine B assay; assay type: functional; details: NCI-H23, 48 h, read-out: Activity
# NCI-H226 = assay: Growth inhibition of human NCI-H226 cells assessed as cell growth at 10 uM after 48 hrs by sulforhodamine B assay; assay type: functional; details: NCI-H226, 48 h, read-out: Activity
# SN12C = assay: Growth inhibition of human SN12C cells after 48 hrs by sulforhodamine B assay; assay type: functional
# ACHN = assay: Growth inhibition of human ACHN cells after 48 hrs by sulforhodamine B assay; assay type: functional
# 786-0 = assay: Growth inhibition of human 786-0 cells after 48 hrs by sulforhodamine B assay; assay type: functional; details: 786-0, 48 h
# SK-OV-3 = assay: Growth inhibition of human SKOV3 cells after 48 hrs by sulforhodamine B assay; assay type: functional; details: SK-OV-3, 48 h
# OVCAR-8 = assay: Growth inhibition of human OVCAR8 cells after 48 hrs by sulforhodamine B assay; assay type: functional; details: OVCAR-8, 48 h
# IGROV-1 = assay: Growth inhibition of human IGROV1 cells after 48 hrs by sulforhodamine B assay; assay type: functional; details: IGROV-1, 48 h
# UACC-62 = assay: Growth inhibition of human UACC62 cells after 48 hrs by sulforhodamine B assay; assay type: functional; details: UACC-62, 48 h
# SK-MEL-28 = assay: Growth inhibition of human SK-MEL-28 cells after 48 hrs by sulforhodamine B assay; assay type: functional; details: SK-MEL-28, 48 h
# SK-MEL-2 = assay: Growth inhibition of human SK-MEL-2 cells after 48 hrs by sulforhodamine B assay; assay type: functional; details: SK-MEL-2, 48 h
# M14 = assay: Growth inhibition of human M14 cells after 48 hrs by sulforhodamine B assay; assay type: functional; details: M14, 48 h
# U-251 = assay: Growth inhibition of human U251 cells after 48 hrs by sulforhodamine B assay; assay type: functional; details: U-251, 48 h
# SF-268 = assay: Growth inhibition of human SF268 cells after 48 hrs by sulforhodamine B assay; assay type: functional; details: SF-268, 48 h
# SF-295 = assay: Growth inhibition of human SF295 cells after 48 hrs by sulforhodamine B assay; assay type: functional, cell-based; details: SF-295, 48 h
# MOLT-4 [3] = assay: Growth inhibition of human MOLT4 cells assessed as cell growth at 10 uM after 48 hrs by sulforhodamine B assay; assay type: functional; details: MOLT-4, 48 h, read-out: Activity
# K562 = assay: Growth inhibition of human K562 cells assessed as cell growth at 10 uM after 48 hrs by sulforhodamine B assay; assay type: functional; details: K562, 48 h, read-out: Activity
# [4] = read-out: LC50 (the source's name)
structure (smiles),measurement,setting,value
COc1cc(-c2nn(-c3cccc(NC(=O)c4ccccc4)c3)cc2-c2ccncc2)ccc1Cl,growth at 10 µM,MDA-MB-468,-19.7%
same,growth at 10 µM,BT-549,1.29%
same,growth at 10 µM,[1],-1.34%
same,growth at 10 µM,MDA-MB-231,5.8%
same,growth at 10 µM,DU-145,11.6%
same,growth at 10 µM,TK-10,31%
same,GI50,NCI-H522,0.317 µM
same,LC50 (concentration killing 50% of cells),NCI-H522,> 100 µM
same,TGI,NCI-H522,> 100 µM
same,GI50,HOP-62,8.34 µM
same,TGI,HOP-62,> 100 µM
same,CC50,HOP-62; [4],> 100 µM
same,GI50,SR,0.25 µM
same,TGI,SR,> 100 µM
same,CC50,SR; [4],> 100 µM
same,GI50,MOLT-4 [2],0.701 µM
same,TGI,MOLT-4 [2],> 100 µM
same,CC50,MOLT-4 [2]; [4],> 100 µM
same,GI50,HL-60(TB),0.479 µM
same,TGI,HL-60(TB),> 100 µM
same,CC50,HL-60(TB); [4],> 100 µM
same,growth at 10 µM,UACC-257,8.64%
same,growth at 10 µM,MDA-MB-435,-57.9%
same,growth at 10 µM,HT-29,2.03%
same,growth at 10 µM,KM12,12.3%
same,growth at 10 µM,HCT-116,8.58%
same,growth at 10 µM,COLO 205,2.21%
same,growth at 10 µM,NCI-H23,33.8%
same,growth at 10 µM,NCI-H226,39.1%
same,GI50,SN12C,2.95 µM
same,TGI,SN12C,> 100 µM
same,CC50,SN12C; [4],> 100 µM
same,GI50,ACHN,0.754 µM
same,TGI,ACHN,> 100 µM
same,CC50,ACHN; [4],> 100 µM
same,GI50,786-0,1.52 µM
same,TGI,786-0,> 100 µM
same,CC50,786-0; [4],> 100 µM
same,GI50,SK-OV-3,1.07 µM
same,TGI,SK-OV-3,> 100 µM
same,CC50,SK-OV-3; [4],> 100 µM
same,GI50,OVCAR-8,0.995 µM
same,TGI,OVCAR-8,> 100 µM
same,CC50,OVCAR-8; [4],> 100 µM
same,GI50,IGROV-1,0.534 µM
same,LC50 (concentration killing 50% of cells),IGROV-1,> 100 µM
same,TGI,IGROV-1,> 100 µM
same,GI50,UACC-62,0.692 µM
same,LC50 (50% lethal concentration),UACC-62,> 100 µM
same,TGI,UACC-62,> 100 µM
same,GI50,SK-MEL-28,3.86 µM
same,LC50,SK-MEL-28,> 100 µM
same,TGI,SK-MEL-28,> 100 µM
same,GI50,SK-MEL-2,0.389 µM
same,LC50 (50% lethal concentration),SK-MEL-2,> 100 µM
same,TGI,SK-MEL-2,4.97 µM
same,GI50,M14,0.575 µM
same,LC50 (concentration killing 50% of cells),M14,> 100 µM
same,TGI,M14,12.9 µM
same,GI50,U-251,0.661 µM
same,LC50 (concentration killing 50% of cells),U-251,> 100 µM
same,TGI,U-251,30.8 µM
same,GI50,SF-268,0.859 µM
same,TGI,SF-268,> 100 µM
same,CC50,SF-268; [4],> 100 µM
same,GI50,SF-295,0.337 µM
same,IC50,SF-295,0.34 µM
same,TGI,SF-295,2.26 µM
same,CC50,SF-295; [4],> 100 µM
same,growth at 10 µM,MOLT-4 [3],0.66%
same,growth at 10 µM,K562,2.59%
